Test results taken from patent US8304425B2, “Pyrrolidinone, pyrrolidine-2,5-dione, pyrrolidine and thiosuccinimide derivatives, compositions and methods for treatment of cancer” (ArQule, Inc., priority 2007, dated 2012).
Where a name gives a salt, the structure may show the parent alone. Read-outs that look alike come from different tables or passages of the source. Where a SMILES comes first, the peptide text is derived from it. The star is where a group is joined. Cbz = O=C(OCc1ccccc1)*; CH2F = FC*

How the values were obtained:
[1] = tested on: HT29 cells; assay: MTS assay; assay type: cell-based; settings: then 48 hours drug-free medium, MTS readout
Method: HT29 cells were seeded in 96-well plates at 1,800 cells/well overnight in medium with 10% FBS. The next day, cells were treated with increasing concentrations of compounds for 24 hours at 37° C. After the treatments, the compound-containing medium was removed, cells were washed twice with PBS, and incubated in drug-free medium containing 10% FBS for an additional 48 hours. After addition of MTS and PMS for 4 hours at concentrations of 2 mg/mL and 0.92 mg/mL, respectively, the results were quantitated by spectrophotometry at λ=490 nm and IC50 for each compound was determined.

[2] = biological target: T1, Recombinant unphosphorylated c-Met comprising residues 1038-1346 (Homo sapiens, UniProt P08581); assay: c-Met 33P assay; assay type: biochemical; settings: 15 minutes preincubation, 100 μM ATP, IGF-1Rtide substrate, read-out: c-Met, p33 assay
T1 construct: The DNA fragment encoding the kinase domain (1038-1346) was inserted into Novagen vector pet28a; His6 (N); made in house; host or cells: E. coli BL21(DE3)RIL
T1 sequence (P08581 1038-1346): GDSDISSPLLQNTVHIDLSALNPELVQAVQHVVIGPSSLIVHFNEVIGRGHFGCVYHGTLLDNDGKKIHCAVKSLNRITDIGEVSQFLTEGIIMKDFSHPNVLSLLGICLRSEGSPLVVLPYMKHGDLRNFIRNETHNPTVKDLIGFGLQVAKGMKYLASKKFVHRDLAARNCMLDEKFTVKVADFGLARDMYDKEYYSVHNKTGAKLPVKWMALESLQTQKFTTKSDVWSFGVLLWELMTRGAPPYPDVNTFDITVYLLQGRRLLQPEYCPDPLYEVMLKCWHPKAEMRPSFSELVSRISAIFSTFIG
Description: cDNA of full-length c-Met purchased from Origen Technologies was used as template for PCR amplification. The DNA fragment encoding the kinase domain (1038-1346) was inserted into Novagen vector pet28a between Nco1 and Sal1 sites. The primers were designed to contain a six-histidine tag to the N-terminus. In order to express dephosphorylated c-Met kinase protein, a tyrosine phosphatase PTP1B (1-283) was sequentially ligated into the made construct between Sal1 and NotI sites. A second ribosome binding site was incorporated in the PTP1B primer after the Sal1 site. The N-terminal His-tagged proteins were expressed in Circlegrow broth (Q-Biogen). The transformed E. coli cell line BL21(DE3)RIL (Stratagene) was cultured to OD=0.8 at 37° C. and induced with 0.3 mM of IPTG for overnight at 12° C. The co-expressed protein was purified by metal-chelation chromatography followed by anion and cation columns. In brief, 4 liters of cells were lysed by sonication in 140 ml buffer containing 20 mM MOPS pH=6.5, 200 mM NaCl, 7.5% glycerol, 0.1% Igepal, supplied with 1 mM PMSF. The supernatant was obtained by centrifugation at 50,000 g for 30 minutes and followed by incubation with 8 mL of Ni-NTA His Bind resin (Novagen) at 4° C. for one hour. A second step 50 mL wash buffer (with 100 mM NaCl and 5 mM imidazole) was applied after initial wash with the lysis buffer. Protein was eluted by 200 mM imidazole pH=8.5, 100 mM NaCl and 7.5% glycerol and directly cleared by passing 10 mL QFF column. The salt concentration and the pH value of the protein flow through were adjusted to 50 mM and 7.5 by dilution, and then loaded to 1 mL SP FF column. The protein was further gel-filtered in an equilibrium buffer of 20 mM TrisHCl pH=8.5, 150 mM NaCl, 7.5% glycerol and 2 mM DTT. The monomeric unphosphorylated c-Met protein was concentrated to 30 mg/mL for storage at −80° C.
Recombinant unphosphorylated c-Met comprising residues 1038-1346 (12.5 ng) was pre-incubated with increasing concentrations of compounds for 15 minutes at room temperature. Following preincubation with compounds, 100 μM of IGF-1Rtide substrate and 100 μM ATP containing 2.5 μCi [^33P-γATP] was added to the mixture. The reaction was carried out for 30 minutes in a Reaction Buffer containing 8 mM MOPS-NaOH pH=7.0, 200 μM EDTA, 5 mM Magnesium acetate, 200 μM dithiothreitol (DTT) and 10 mM Na3VO4. The reaction was then terminated with 10 μL of 3% phosphoric acid. Ten μL were transferred onto a filterplate and were washed 3-times with 1% phosphoric acid; counts were read with a microbeta counter, and IC50 for c-Met inhibition was determined for each compound.

[3] = tested on: HT29 cells; assay: Annexin V-Fluos cell death high content imaging after met siRNA transfection; assay type: cell-based; settings: increased concentrations of caspase inhibitor for 1 additional day after transfection
Method: Exponentially growing HT29 cells were plated in black 96-well plates at 5,000 cells/well overnight in medium with 10% FBS. The next day, cells were transiently transfected for 2 days using DharmaFECT 4 reagent with a pool of four met-specific 21-nucleotide RNA oligonucleotides forming a 19-bp duplex core with 2-nucleotide 3′ overhang in combination (Dharmacon, Inc., Lafayette, Colo.). Transfection of gapdh siRNA (Dharmacon, Inc.) and of a non-targeting siRNA under the same conditions was done in parallel as controls (Dharmacon, Inc.). Cells were then incubated in the absence or the presence of increasing concentrations of ZvAD-FMK, an irreversible caspase inhibitor for 1 additional day. Cells were incubated for at least 10 minutes in a labeling solution (10 mM HEPES, 140 mM NaCl and 6 mM CaCl2) containing […] Hoescht 33342 (blue channel; Molecular Probes/Invitrogen Corp., Natick, Mass.), 500 times diluted Annexin V-Fluos (green channel; Roche Applied Science, Indianapolis, Ind.) and 1 μg/ml propidium iodide (red channel; Roche Applied Science). High content image acquisition and analysis were carried out using a Beckman Coulter IC100 Cytometer. The program was set to take four images per well. […] Images were processed and numbers of positive cells for each channel and each condition were determined using Cytoshop 2.1 software (Beckman Coulter, Inc.). […]

[4] = Homo sapiens, HT-29, 24 hours treatment
[5] = 24 hours treatment, read-out: HT-29, IC50

Molecule: O=C(C1CCC1)N1C[C@@H](c2c[nH]c3ccccc23)[C@H](c2cn3c4c(cccc24)CCC3)C1 [Example 11, cyclobutyl-[(3R,4R)-3-(5,6-dihydro-4H-pyrrolo[3,2,1-ij]quinolin-1-yl)-4-(1H-indol-3-yl)-pyrrolidin-1-yl]-methanone]
- melting point: 253 to 255 °C
- IC50 [1, 4]: ≥ 10 µM
- IC50 [2]: ≥ 10 µM

Molecule: CCNC(=O)N1C[C@@H](c2c[nH]c3ccccc23)[C@H](c2cn3c4c(cccc24)CCC3)C1 [Example 8, (3R,4R)-3-(5,6-dihydro-4H-pyrrolo[3,2,1-ij]quinolin-1-yl)-4-(1H-indol-3-yl)-pyrrolidine-1-carboxylic acid ethylamide]
- melting point: 278 to 279 °C
- IC50 [1, 4]: ≥ 10 µM
- IC50 [2]: ≥ 10 µM

Molecule: O=C1NCC(c2cn3c4c(cccc24)CCC3)C1c1c[nH]c2ccccc12 (mixture of isomers) [Example 1, 4-(5,6-dihydro-4H-pyrrolo[3,2,1-ij]quinolin-1-yl)-3-(1H-indol-3-yl)-pyrrolidin-2-one]
- melting point: 260 to 262 °C
- IC50 [1, 4]: ≤ 1 µM
- IC50 [2]: ≥ 10 µM

Molecule: (3R,4R)-4-(5,6-dihydro-4H-pyrrolo[3,2,1-ij]quinolin-1-yl)-3-(1H-indol-3-yl)-5-thioxo-pyrrolidin-2-one and (3R,4R)-3-(5,6-dihydro-4H-pyrrolo[3,2,1-ij]quinolin-1-yl)-4-(1H-indol-3-yl)-5-thioxo-pyrrolidin-2-one (1/1 mixture) [Example 2]
- IC50 [1, 5]: ≤ 1 µM
- IC50 [2]: ≤ 1 µM

Molecule: CC(C)S(=O)(=O)N1C[C@@H](c2c[nH]c3ccccc23)[C@H](c2cn3c4c(cccc24)CCC3)C1 [Example 10, 1-[(3R,4R)-4-(1H-indol-3-yl)-1-(propane-2-sulfonyl)-pyrrolidin-3-yl]-5,6-dihydro-4H-pyrrolo[3,2,1-ij]quinoline]
- melting point: 100 to 115 °C
- IC50 [1, 4]: ≥ 10 µM
- IC50 [2]: ≥ 10 µM

Molecule: CC(C)(C)CC(=O)N1C[C@@H](c2c[nH]c3ccccc23)[C@H](c2cn3c4c(cccc24)CCC3)C1 [Example 12, 1-[(3R,4R)-3-(5,6-dihydro-4H-pyrrolo[3,2,1-ij]quinolin-1-yl)-4-(1H-indol-3-yl)-pyrrolidin-1-yl]-3,3-dimethyl-butan-1-one]
- melting point: 202 to 204 °C
- IC50 [1, 4]: ≥ 10 µM
- IC50 [2]: ≥ 10 µM

Molecule: O=S(=O)(c1ccccc1)N1C[C@@H](c2c[nH]c3ccccc23)[C@H](c2cn3c4c(cccc24)CCC3)C1 [Example 9, 1-[(3R,4R)-1-benzenesulfonyl-4-(1H-indol-3-yl)-pyrrolidin-3-yl]-5,6-dihydro-4H-pyrrolo[3,2,1-ij]quinoline]
- melting point: 115 to 125 °C
- IC50 [1, 4]: ≥ 10 µM
- IC50 [2]: ≥ 10 µM

Molecule: COC(=O)C[C@H](NC(=O)[C@H](C)NC(=O)[C@@H](NC(=O)OCc1ccccc1)C(C)C)C(=O)CF [ZvAD-FMK] (Cbz-Val-Ala-Asp(OMe)-CH2F)
- levels of cell death in met siRNA transfected cells [3]: decreased the levels of cell death

Molecule: O=C1NC[C@@H](c2c[nH]c3ccccc23)[C@@H]1c1cn2c3c(cccc13)CCC2 (racemic) [Example 4, (±)-trans-3-(5,6-dihydro-4H-pyrrolo[3,2,1-ij]quinolin-1-yl)-4-(1H-indol-3-yl)-pyrrolidin-2-one]
- melting point: 241 to 243 °C
- IC50 [1, 4]: ≤ 1 µM
- IC50 [2]: 1 to 10 µM

Molecule: (3R,4R)-4-(5,6-dihydro-4H-pyrrolo[3,2,1-ij]quinolin-1-yl)-3-(1H-indol-3-yl)-pyrrolidin-2-one and (3R,4R)-3-(5,6-dihydro-4H-pyrrolo[3,2,1-ij]quinolin-1-yl)-4-(1H-indol-3-yl)-pyrrolidin-2-one (1/1 mixture) [Example 3]
- IC50 [1, 5]: ≤ 1 µM
- IC50 [2]: ≥ 10 µM

Molecule: c1ccc2c([C@@H]3CNC[C@H]3c3cn4c5c(cccc35)CCC4)c[nH]c2c1 [Example 7, 1-[(3R,4R)-4-(1H-indol-3-yl)-pyrrolidin-3-yl]-5,6-dihydro-4H-pyrrolo[3,2,1-ij]quinoline]
- IC50 [1, 4]: ≤ 1 µM
- IC50 [2]: ≥ 10 µM

Molecule: O=C1NC[C@@H](c2cccc(C(F)(F)F)c2)[C@@H]1c1cn2c3c(cccc13)CCC2 (racemic) [Example 5, (±)-trans-3-(5,6-Dihydro-4H-pyrrolo[3,2,1-ij]quinolin-1-yl)-4-(3-trifluoromethyl-phenyl)-pyrrolidin-2-one]
- melting point: 82 to 85 °C
- IC50 [1, 4]: ≥ 10 µM

Molecule: COc1cccc([C@@H]2CNC(=O)[C@H]2c2cn3c4c(cccc24)CCC3)c1 (racemic) [Example 6, (±)-trans-3-(5,6-Dihydro-4H-pyrrolo[3,2,1-ij]quinolin-1-yl)-4-(3-methoxy-phenyl)-pyrrolidin-2-one]
- melting point: 191 to 194 °C
- IC50 [1, 4]: ≥ 10 µM

Molecule: c1ccc2c([C@@H]3CNC[C@H]3c3cn4c5c(cccc35)CCC4)c[nH]c2c1 (as salt: HCl) [Example 7, 1-[(3R,4R)-4-(1H-indol-3-yl)-pyrrolidin-3-yl]-5,6-dihydro-4H-pyrrolo[3,2,1-ij]quinoline]
- melting point: 239 to 240 °C
